# Test results: article PMC9884962, “Pigments of aminophenoxazinones and viridomycins produced by termite-associated Streptomyces tanashiensis BYF-112” (Frontiers in Microbiology, 2023)
# Several values for one entry are separate records, joined by “and”; a condition that tells them apart may be missing. Equal values may be shown once. Read-outs that look alike come from different tables or passages of the source.
# Experiments:
# Assay type in all cases: cell-based
# [1] = tested on: human malignant melanoma cell line (A375); test: MTT cytotoxicity assay, A375; details: A-375, 48 h exposure, read-out: Cytotoxic activity IC50, A375
# Procedure: (§1) The metabolites 1–4 were evaluated for their cytotoxic activities against human malignant melanoma cell line (A375), human ovarian cancer cell line (SKOV-3), human breast cancer cell line (MDA-MB231), human gastric cancer cell line (MGC-803) and human normal cell line (L-02) with the MTT method ([Wang et al., 2022]). The cell lines were maintained in Dulbecco’s modified eagle medium (DMEM) supplemented with 10% fetal bovine serum (FBS) along with 1% penicillin and streptomycin. Cells were grown at 37°C in an atmosphere with 5% CO2 and then seeded in 96-well plates and permitted to grow for 20 h. Then tested compounds at preset concentrations were added. The 3-(4,5-dimethylthiazol-2-yl)-2,5-diphenyltetrazolium bromide (MTT; 20 μl, 5 mg/ml) was added into each well after a 48 h exposure period. After an additional 4 h further incubation, the medium was replaced by DMSO (150 μl), then shaking the plates for 15 min. The absorbance at 490 nm were recorded. The percentage of cell viability was calculated using the following formula: Cell viability (%) = the OD of tested group/the OD of CK × 100%. Finally, IC50 values were determined by EXCEL. The azithromycin was used as positive control.
# [2] = tested on: human ovarian cancer cell line (SKOV-3); test: MTT cytotoxicity assay, SKOV-3; details: SK-OV-3, 48 h exposure, read-out: Cytotoxic activity IC50, SKOV-3
# Procedure: as §1
# [3] = tested on: human breast cancer cell line (MDA-MB231); test: MTT cytotoxicity assay, MDA-231; details: MDA-MB-231, 48 h exposure, read-out: Cytotoxic activity IC50, MDA-231
# Procedure: as §1
# [4] = tested on: human gastric cancer cell line (MGC-803); test: MTT cytotoxicity assay, MGC-803; details: 48 h exposure, read-out: Cytotoxic activity IC50, MGC-803
# Procedure: as §1
# [5] = MTT cytotoxicity assay, L-02; details: human, L-02 normal liver cells, 48 h exposure, normal cell line, read-out: Cytotoxic activity IC50, L-02
# Procedure: as §1
# [6] = tested on: Escherichia coli (ATCC8739); test: Filter paper disc diffusion, E. coli; details: 30 μg/filter paper (6 mm disc), 37°C, 12 h; dash = No inhibited
# Procedure: (§2) The Staphylococcus aureus (ATCC6538), methicillin-resistant S. aureus (MRSA, SA2), Escherichia coli (ATCC8739) and Micrococcus tetragenus (ATCC35098) donated by Professor Ting Xue from Anhui Agricultural university were used as a target pathogen for the examination of antibacterial activity of the metabolites. The disc diffusion ([Özogul et al., 2022]) and minimum inhibitory concentrations (MICs; [Cui et al., 2022]) methods were performed to evaluate the antibacterial activities of the new natural metabolites 1, 2, and 4. Filter paper disks (6 mm) with metabolite dissolved in DMSO in a concentration (30 μg/filter paper) were added to the culture medium, and the plates were incubated at 37°C for 12 h. Filter papers with DMSO and levofloxacin were set as negative and positive controls, respectively. All experiments were performed in triplicate, and data were shown as mean values standard deviation. And the MICs of the compounds were determined by the method as we previously described ([Cui et al., 2022]).
# [7] = tested on: Micrococcus tetragenus (ATCC35098); test: Filter paper disc diffusion, M. tetragenus; details: 30 μg/filter paper (6 mm disc), 37°C, 12 h, dash = No inhibited
# Procedure: as §2
# [8] = tested on: Staphylococcus aureus (ATCC6538); test: Filter paper disc diffusion, S. aureus; details: 30 μg/filter paper (6 mm disc), 37°C, 12 h, dash = No inhibited
# Procedure: as §2
# [9] = tested on: methicillin-resistant S. aureus (MRSA, SA2); test: Filter paper disc diffusion, MRSA; details: 30 μg/filter paper (6 mm disc), 37°C, 12 h, dash = No inhibited
# Procedure: as §2
# [10] = tested on: Escherichia coli (ATCC8739); test: Minimum inhibitory concentration assay, E. coli
# Procedure: as §2
# [11] = tested on: Micrococcus tetragenus (ATCC35098); test: Minimum inhibitory concentration assay, M. tetragenus; details: for MIC: Micrococcus, ATCC35098
# Procedure: as §2
# [12] = tested on: Staphylococcus aureus (ATCC6538); test: Minimum inhibitory concentration assay, S. aureus; details: for MIC: Staphylococcus aureus, ATCC6538
# Procedure: as §2
# [13] = tested on: methicillin-resistant S. aureus (MRSA, SA2); test: Minimum inhibitory concentration assay, MRSA
# Procedure: as §2
# [14] = tested on: human cancer cell lines (A375, SKOV-3, MDA-231 and MGC-803); test: MTT cytotoxicity assay, tested human cancer cell lines together; details: range over A375, SKOV-3, MDA-231 and MGC-803, read-out: IC50 values against the tested human cancer cell lines
# Procedure: as §1
# [15] = Staphylococcus aureus, MRSA; read-out: Minimum inhibitory concentration (MIC), MRSA
Molecule,IC50 [1] [µM],IC50 [2] [µM],IC50 [3] [µM],IC50 [4] [µM],IC50 at 48 h [5] [µM],"Zone of inhibition (ZOI), Escherichia coli [6]","Zone of inhibition (ZOI), Micrococcus tetragenus [7]","Zone of inhibition (ZOI), Staphylococcus aureus [8]","Zone of inhibition (ZOI), MRSA [9]",MIC [10] [µg/mL],MIC [11] [µg/mL],MIC [12] [µg/mL],"MIC [13, 15] [µg/mL]",further results
"CC(=O)OCc1ccc2oc3cc(=O)c(NC4OC(CO)C(O)C(O)C4O)cc-3nc2c1 (centres unmarked) [Compound 4, exfoliazoneglycoside]",> 100,> 100,> 100,> 100,> 100,–^b,–^b,–^b,–^b,> 100,> 100,> 100,> 100,–
"Nc1cc2nc3cc(CO)ccc3oc-2cc1=O [Compound 1, 2-amino-8-hydroxymethyl-3H-phenoxazin-3-one]",67.7 ± 4.31,22.3 ± 3.78,55.9 ± 7.47,50.2 ± 7.01,72 ± 7.22,–^b,15.3 mm and 15. mm and 15.3 ± 0.2 mm,17.2 mm and 17.2 ± 0.2 mm,15.3 mm and 15.3 ± 0.1 mm,> 100,12.5,12.5,25,"Minimum inhibitory concentration (MIC), Staphylococcus aureus [12]: 12.5 µg/mL; IC50 [14]: 22.3 to 67.7 µM"
"CC(=O)Nc1cc(CNc2cc3nc4cc(CO)ccc4oc-3cc2=O)ccc1O [Compound 3, exfoliazone C]",> 100,> 100,> 100,> 100,> 100,–,–,–,–,–,–,–,–,–
gentamycin sulfate [reference compound],–,–,–,–,–,–,–,–,–,–,–,–,–,"Minimum inhibitory concentration (MIC), Micrococcus tetragenus [11]: 3.13 µg/mL; Minimum inhibitory concentration (MIC), Staphylococcus aureus [12]: 3.13 µg/mL; Minimum inhibitory concentration (MIC), MRSA [13]: 6.25 µg/mL"
"CC(=O)OCc1ccc2oc3cc(=O)c(N)cc-3nc2c1 [Compound 2, exfoliazone B]",> 100,75.8 ± 5.77,> 100,69.9 ± 1.94,> 100,–^b,–^b,–^b,–^b,> 100,50,> 100,> 100,–
"C[C@H]1COc2c(N3CCN(C)CC3)c(F)cc3c(=O)c(C(=O)O)cn1c23 [Levofloxacin, levofloxacin, reference compound]",–,–,–,–,–,33.0 ± 1.0 mm,24.8 ± 0.6 mm,28.9 ± 0.8 mm,15.2 ± 0.1 mm,3.13,3.13,3.13,–,"Zone of inhibition (ZOI), Micrococcus tetragenus ([7]; listed as levofloxacin): 24.8 mm; Zone of inhibition (ZOI), Staphylococcus aureus ([8]; listed as levofloxacin): 28.9 mm; Zone of inhibition (ZOI), MRSA ([9]; listed as levofloxacin): 15.2 mm; MIC ([13]; Staphylococcus aureus, MRSA, read-out: Minimum inhibitory concentration (MIC), MRSA): 6.25 µg/mL"
"CC[C@H]1OC(=O)[C@H](C)[C@@H](O[C@H]2C[C@@](C)(OC)[C@@H](O)[C@H](C)O2)[C@H](C)[C@@H](O[C@@H]2O[C@H](C)C[C@H](N(C)C)[C@H]2O)[C@](C)(O)C[C@@H](C)CN(C)[C@H](C)[C@@H](O)[C@]1(C)O [Azithromycin, azithromycin, reference compound]",0.79 ± 0.13,0.41 ± 0.12,4.03 ± 0.43,1.57 ± 0.03,7.34 ± 1.15,–,–,–,–,–,–,–,–,–
